Experimental data from ChEMBL document CHEMBL3046147, “Synthesis and Herbicidal Activity of 1-Arylalkyl-3-pyrrolin-2-one Derivatives” (J Pestic Sci, 2000).

Legend:
[1] = test system: Sagittaria pygmaea; experiment: Herbicide activity against Sagittaria pygmaea under greenhouse condition compound treated at 0.5 leaf-stage measured after 14 to 20 days; assay type: functional
[2] = test system: Oryza sativa; experiment: Phytotoxicity against two-leaf stage Oryza sativa cv. Nihonbare (rice) planted 1 cm depth measured after […]; assay type: organism-based; settings: in vivo
[3] = test system: Oryza sativa; experiment: Phytotoxicity against two-leaf stage Oryza sativa cv. Nihonbare (rice) planted 3 cm depth measured after […]; assay type: organism-based; settings: in vivo
[4] = test system: Echinochloa oryzicola; experiment: Pre-emergence herbicide activity against Echinochloa oryzicola under greenhouse condition measured after 14 to 20 days; assay type: functional
[5] = test system: Schoenoplectiella juncoides; experiment: Herbicide activity against Schoenoplectiella juncoides under greenhouse condition compound treated at emergence-stage measured after 14 to 20 days; assay type: functional
[6] = test system: Echinochloa oryzicola; experiment: Herbicide activity against Echinochloa oryzicola under greenhouse condition compound treated at 2 leaf-stage measured after 14 to 20 days; assay type: functional

| SMILES | MED [1] [g/acre] | MTD [2] [g/acre] | MTD [3] [g/acre] | MED [4] [g/acre] | MED [5] [g/acre] | MED [6] [g/acre] |
| --- | --- | --- | --- | --- | --- | --- |
| CC1=C(c2ccccc2)C(=O)N(C(C)(C)c2nc3c(Cl)cccc3s2)C1 | 80 | > 5 | 10 | 1.25 | 80 | 5 |
| CC(=O)OC1=C(c2ccccc2)C(=O)N(C(C)(C)c2nc3ccccc3s2)C1 | 80 | < 20 | < 20 | 80 | 80 | <5 |
| CC1=C(c2ccccc2)C(=O)N(C(C)(C)c2nc3cc(F)ccc3s2)C1 | 20 | 1.25 | 10 | 1.25 | 40 | 5 |
| CC1=C(c2ccccc2)C(=O)N(C(C)(C)c2nc3ccccc3o2)C1 | 10 | 5 | 20 | 0.625 | 2.5 | 5 |
| CC1=C(c2ccccc2)C(=O)N(C(C)(C)c2nc3ccc(F)cc3s2)C1 | 40 | 5 | 20 | 5 | 40 | <5 |
| CC(C)(c1nc2ccccc2s1)N1CC(C(F)(F)F)=C(c2ccccc2)C1=O | 40 | 5 | 10 | 1.25 | 80 | <5 |
| CC1=C(c2ccccc2C(F)(F)F)C(=O)N(C(C)(C)c2nc3ccccc3s2)C1 | 5 | 20 | 40 | 20 | 80 | <5 |
| CC1=C(c2ccccc2)C(=O)N(C(C)(C)c2nc3ccccc3n2C)C1 | 20 | 80 | 40 | <10 | 40 | <5 |
| CCC1=C(c2ccccc2)C(=O)N(C(C)(C)c2nc3ccccc3s2)C1 | 80 | 20 | 40 | 0.313 | 10 | 5 |
| CC1=C(c2ccccc2)C(=O)N(C(C)(C)c2nc3ccc(Cl)cc3s2)C1 | 80 | 20 | 40 | 1.25 | 160 | <5 |
| CC1=C(c2ccccc2)C(=O)N(C(C)(C)c2nc3cc(Br)ccc3s2)C1 | 160 | 80 | 80 | 20 | 160 |  |
| CC1=C(c2ccccc2)C(=O)N(C(C)(C)c2ncc(-c3ccc(Cl)cc3)s2)C1 | 160 | 80 | 80 | 40 | 160 | <5 |
| CC(C)(c1nc2ccccc2s1)N1CC=C(c2ccccc2)C1=O | 10 | 2.5 | < 20 | 0.625 | 5 | 5 |
| CC1=C(c2ccccc2)C(=O)N(C(C)(C)c2nc3cc(C(=O)O)ccc3s2)C1 | 80 | 10 | 20 | 80 | 80 | <5 |
| CC1=C(c2ccccc2)C(=O)N(C(C)(C)c2nc3ccc(I)cc3s2)C1 | 20 | 20 | 10 | 5 | 20 | <5 |
| CC1=C(c2cccc(F)c2)C(=O)N(C(C)(C)c2nc3ccccc3s2)C1 | 40 | 5 | 20 | 5 | 40 | 5 |
| CC1=C(c2cccc(C(F)(F)F)c2)C(=O)N(C(C)(C)c2nc3ccccc3s2)C1 | 160 | 20 | 20 | 80 | 160 | <5 |
| CC1=C(c2cccc3ccccc23)C(=O)N(C(C)(C)c2nc3ccccc3s2)C1 | 80 | 80 | 80 | 80 | 80 |  |
| CC1=C(c2ccccc2)C(=O)N(C(C)(C)c2ccccn2)C1 | 80 |  |  | 20 | 40 |  |
